Experimental data published in patent US20230051268A1, “USE OF L[…] TREATING INSOMNIA” (Eisai R&D Management Co., Ltd., priority 2019, published 2023).
Several values for one entry are separate records, joined by “and”; a condition that tells them apart may be missing. Equal entries are not always repeated. Where two headings read alike, the source gives them in different places. Marks after values point to notes of the source that are not given here.

Key:
[1] = Single-dose pharmacokinetic study of lemborexant and metabolites M4, M9, M10 in subjects with mild or moderate hepatic impairment and healthy controls (plasma, LC-MS/MS); format: in vivo, human; details: for Ratio (%) (Test/Ref) of geometric mean AUC(0-inf) / Ratio (%) (Test/Ref) of geometric mean AUC(0-t) / Ratio (%) (Test/Ref) of geometric mean Cmax: lemborexant 10 mg single dose; for half-life / AUC(0-inf) / Vd/F / Cmax / AUC(0-t) / AUCu / CL/F / CLu/F: geometric mean (% CV); for Vd/F: read-out: Vz/F
Method: A multicenter, single-dose, open-label, parallel-group study in subjects with mild or moderate hepatic impairment and matched (with regard to age [±10 years], sex, and body mass index [BMI, ±20%]) healthy subjects as controls was performed.
The primary objective of the study was to assess the effect of mild and moderate hepatic impairment on the PK of lemborexant after a single-dose administration.
Secondary objectives of the study were: to evaluate the effects of hepatic impairment on the PK of lemborexant metabolites M4, M9, and M10; to evaluate the relationship between the PK parameters of lemborexant and its metabolites and the Child-Pugh classification score, serum albumin, total bilirubin, and PT; and to assess safety and tolerability of lemborexant following a single-dose administration in subjects with mild or moderate hepatic impairment and healthy control subjects.
(§1) On Day 1, the subjects were administered a single oral 10 mg dose of lemborexant with approximately 240 mL of water in the morning after an overnight fast. No food was allowed for at least 4 hours postdose. Water was allowed as desired except for 1 hour before and after drug administration.
(§2) The blood samples for PK assessments were collected at prespecified intervals up to 312 hours postdose administration. In addition, the blood samples for plasma protein binding assessments of lemborexant were collected from each subject at 2 time points; approximately 1 hour and 24 hours postdose. The subjects were discharged on Day 14 of the study. The end of the study was the date of the last study visit for the last subject.
(§3) Blood samples (4 mL each) for PK assessments of lemborexant and its metabolites (M4, M9, and M10) were collected at predose (0 hour), 0.5, 1, 1.5, 2, 3, 4, 6, 8, 12, 24, 48, 72, 96, 120, 144, 168, 216, 264, and 312 hours postdose. In addition, blood samples (12 mL per time point) for protein binding of lemborexant and its metabolites (M4, M9, and M10) were collected at 1 and 24 hours postdose matching the PK sample collection at those time points.
(§4) Total mean plasma concentrations of lemborexant and lemborexant metabolites (M4, M9, and M10) were measured by validated liquid chromatography with tandem mass spectrometry (LC-MS/MS). Unbound lemborexant concentrations of lemborexant, M4, M9, and M10 were also measured using a similar validated LC-MS/MS method following equilibrium dialysis.

[2] = Plasma protein binding (unbound fraction) by equilibrium dialysis and LC-MS/MS, samples 1 and 24 hours postdose; format: in vitro ADME; details: human, oral, 10 mg, lemborexant 10 mg single oral dose, geometric mean (% CV)
Method: as §2, §3, §4

[3] = Safety and tolerability assessment (TEAEs, ECGs, vital signs, laboratory tests) after single 10 mg dose; format: in vivo, human
Method: as §1
Safety was assessed by monitoring and documenting treat-emergent adverse events (TEAEs), ECGs, vital signs, weight, physical examinations, and clinical laboratory tests (urinalysis, hematology, and blood chemistry).

[4] = human, plasma, po, 10 mg, lemborexant 10 mg single oral dose, normal hepatic function (n = 8)
[5] = lemborexant 10 mg single oral dose, mild hepatic impairment (n = 7)
[6] = lemborexant 10 mg single oral dose, moderate hepatic impairment (n = 6)
[7] = lemborexant 10 mg single oral dose, normal hepatic function (n = 8)
[8] = moderate hepatic impairment, 10 mg

## Cc1ncc(OC[C@@]2(c3cccc(F)c3)C[C@H]2C(=O)Nc2ccc(F)cn2)c(C)n1 [lemborexant, (1R,2S)-2-(((2,4-dimethylpyrimidin-5-yl)oxy)methyl)-2-(3-fluorophenyl)-N-(5-fluoropyridin-2-yl)cyclopropanecarboxamide]
[1]; Mild: Normal
  Ratio (%) (Test/Ref) of geometric mean AUC(0-inf): 125.03%
  Ratio (%) (Test/Ref) of geometric mean AUC(0-t): 131.91%
  Ratio (%) (Test/Ref) of geometric mean Cmax: 157.86%
[1]; Moderate: Normal
  Ratio (%) (Test/Ref) of geometric mean AUC(0-inf): 153.56%
  Ratio (%) (Test/Ref) of geometric mean AUC(0-t): 149.52%
  Ratio (%) (Test/Ref) of geometric mean Cmax: 122.20%
[1]; human, plasma, oral, 10 mg, normal, mild and moderate cohorts, 10 mg tablet, read-out: median tmax across cohorts
  Tmax: 1 to 1.25 h
[1]; human, plasma, po, 10 mg, lemborexant 10 mg single oral dose, mild hepatic impairment (lemborexant n = 7)
  half-life: 73.7 h
[1]; human, plasma, po, 10 mg, lemborexant 10 mg single oral dose, mild hepatic impairment (lemborexant n = 7), read-out: AUC(0-inf)
  AUC(0-inf): 567 ng·h/mL
[1]; human, plasma, po, 10 mg, lemborexant 10 mg single oral dose, mild hepatic impairment (n = 7)
  Vd/F: 1880 L
[1]; human, plasma, po, 10 mg, lemborexant 10 mg single oral dose, mild hepatic impairment (n = 8)
  Cmax: 62.9 ng/mL
[1]; human, plasma, po, 10 mg, lemborexant 10 mg single oral dose, mild hepatic impairment (n = 8), read-out: AUC(0-t)
  AUC(0-t): 574 ng·h/mL
[1]; human, plasma, po, 10 mg, lemborexant 10 mg single oral dose, mild hepatic impairment (n = 8), median (range), read-out: tmax
  Tmax: 1 h
[1]; human, plasma, po, 10 mg, lemborexant 10 mg single oral dose, moderate hepatic impairment (lemborexant n = 6)
  half-life: 105 h
[1]; human, plasma, po, 10 mg, lemborexant 10 mg single oral dose, moderate hepatic impairment (lemborexant n = 6), read-out: AUC(0-inf)
  AUC(0-inf): 696 ng·h/mL
[1]; human, plasma, po, 10 mg, lemborexant 10 mg single oral dose, moderate hepatic impairment (n = 6)
  Vd/F: 2170 L
[1]; human, plasma, po, 10 mg, lemborexant 10 mg single oral dose, moderate hepatic impairment (n = 8)
  Cmax: 48.7 ng/mL
[1]; human, plasma, po, 10 mg, lemborexant 10 mg single oral dose, moderate hepatic impairment (n = 8), read-out: AUC(0-t)
  AUC(0-t): 651 ng·h/mL
[1]; human, plasma, po, 10 mg, lemborexant 10 mg single oral dose, moderate hepatic impairment (n = 8), median (range), read-out: tmax
  Tmax: 1 h
[1]; [4]
  Cmax: 39.8 ng/mL
  half-life: 67 h
  Vd/F: 2130 L
[1]; human, plasma, po, 10 mg, lemborexant 10 mg single oral dose, normal hepatic function (n = 8), read-out: AUC(0-inf)
  AUC(0-inf): 453 ng·h/mL
[1]; human, plasma, po, 10 mg, lemborexant 10 mg single oral dose, normal hepatic function (n = 8), read-out: AUC(0-t)
  AUC(0-t): 435 ng·h/mL
[1]; human, plasma, po, 10 mg, lemborexant 10 mg single oral dose, normal hepatic function (n = 8), median (range), read-out: tmax
  Tmax: 1.25 h
[1]; lemborexant 10 mg single oral dose, mild hepatic impairment (lemborexant n = 7)
  AUC(0-inf): 567 ng·h/mL
[1]; [5]
  AUCu: 34.9 (52.6)^b h * ng/mL
  CL/F: 17.6 L/h and 17.6 (52.0)^b L/h
  CLu/F: 287 (52.6)^b L/h
[1]; lemborexant 10 mg single oral dose, mild hepatic impairment (n = 8)
  AUC(0-t): 574 ng·h/mL
[1]; lemborexant 10 mg single oral dose, moderate hepatic impairment (lemborexant n = 6)
  AUC(0-inf): 696 ng·h/mL
[1]; [6]
  AUCu: 45.1 (42.6)^c h * ng/mL
  CL/F: 14.4 L/h and 14.4 (34.6)^c L/h
  CLu/F: 222 (42.6)^c L/h
[1]; lemborexant 10 mg single oral dose, moderate hepatic impairment (n = 8)
  AUC(0-t): 651 ng·h/mL
[1]; [7]
  AUCu: 27.1 (36.8) h * ng/mL
  CL/F: 22.1 L/h and 22.1 (33.9) L/h
[1]; mild hepatic impairment, 10 mg
  decrease of total body clearance compared with healthy subjects: 20%
  increase of AUC(0-inf) compared to healthy subjects: 25%
  increase of Cmax compared to healthy subjects: 58%
[1]; mild or moderate hepatic impairment, single 10-mg tablet
  exposure (geometric mean Cmax, AUC) compared with healthy control subjects: higher
[1]; [8]
  decrease of total body clearance compared with healthy subjects: 35%
  increase of AUC(0-inf) compared to healthy subjects: 54%
  increase of Cmax compared to healthy subjects: 22%
[1]; vs Child-Pugh score, serum albumin, total bilirubin, MELD score, PT
  effects of mild and moderate hepatic impairment on PK (scatter plots, linear regression): small and similar
[2]; mild hepatic impairment (n = 8)
  fraction unbound: 0.063
[2]; moderate hepatic impairment (n = 8)
  fraction unbound: 0.065
[2]; normal hepatic function (n = 8)
  fraction unbound: 0.0597
[3]; Class A (mild hepatic impairment)
  subjects who experienced a TEAE: 7 (87.5%) subjects (%)
[3]; Class B (moderate hepatic impairment)
  subjects who experienced a TEAE: 6 (75.0%) subjects (%)
[3]; Healthy Controls
  subjects who experienced a TEAE: 7 (87.5%) subjects (%)
[3]; all 24 subjects
  subjects who experienced a TEAE: 20 (83.3%) subjects (%)
[3]; all cohorts
  TEAEs potentially related to cataplexy: no TEAEs potentially related to cataplexy
  TEAEs that led to subject discontinuation: none
  severity of TEAEs: mild in severity
[3]; all cohorts, single 10 mg dose
  SAEs reported: No SAEs were reported
